Earlier results as cited in patent publication EP0557244B1, “Dosage forms having prolonged active-ingredient release” (Siegfried Pharma AG, priority 1992, dated 1993).
Like-named read-outs stand apart in the source and are kept apart here.

[1] = 20 mg of crystalline nifedipine, Pabst et al.
[2] = 20 mg of dissolved nifedipine in capsules, Pabst et al.

COC(=O)C1=C(C)NC(C)=C(C(=O)OC)C1c1ccccc1[N+](=O)[O-] [nifedipine]
plasma level peaks [1]: about 40 ng/ml | time of plasma level peaks [1]: about 1.5 hours | plasma level peaks [2]: about 200 ng/ml | time of plasma level peaks [2]: about 30 minutes | plasma level peaks (tablet containing 40 mg of nifedipine (EP 220 760), initially): more than 60 ng/ml
